Test results published in patent publication US10597388B2, “Pyridazinone herbicides” (FMC CORPORATION, priority 2014, dated 2020).

Legend:
Experiment in all cases: Test D controlled growth environment herbicide test, pre- and postemergence
Assay type in all cases: in vivo
[1] = test system: Russian thistle (Salsola kali)
Procedure, shortened: (§1)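 Species sown in silt loam and sprayed preemergence, or grown in peat-based medium to 2–18 cm (1- to 4-leaf stage) and sprayed postemergence, with compounds in non-phytotoxic solvent plus surfactant. Visual injury scored versus controls after 14–21 d in a controlled environment, 0 (no effect) to 100 (complete control).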

[2] = test system: barley, spring (spring barley, Hordeum vulgare)
Procedure, shortened: as §1

[3] = test system: barley, winter (winter barley, Hordeum vulgare)
Procedure, shortened: as §1

[4] = test system: blackgrass (Alopecurus myosuroides)
Procedure, shortened: as §1

[5] = test system: bluegrass (annual bluegrass, Poa annua)
Procedure, shortened: as §1

[6] = test system: field poppy (Papaver rhoeas)
Procedure, shortened: as §1

kochia (Kochia scoparia) = test system: kochia (Kochia scoparia)
Procedure, shortened: as §1

[7] = test system: mustard, wild (wild mustard, Sinapis arvensis)
Procedure, shortened: as §1

[8] = test system: oat, wild (wild oat, Avena fatua)
Procedure, shortened: as §1

[9] = test system: pigweed (Amaranthus retroflexus)
Procedure, shortened: as §1

[10] = test system: radish, wild (wild radish, Raphanus raphanistrum)
Procedure, shortened: as §1

[11] = test system: speedwell (bird's-eye speedwell, Veronica persica)
Procedure, shortened: as §1

[12] = test system: wheat, spring (spring wheat, Triticum aestivum)
Procedure, shortened: as §1

[13] = Postemergence, 31 g ai/ha, scale 0 to 100 (0 no effect, 100 complete control)
[14] = Postemergence, 125 g ai/ha, visual rating on scale 0 (no effect) to 100 (complete control), 14 to 21 d
[15] = Postemergence, 250 g ai/ha, scale 0 to 100 (0 no effect, 100 complete control)
[16] = Preemergence, 125 g ai/ha, scale 0 to 100 (0 no effect, 100 complete control)
[17] = Preemergence, 250 g ai/ha, scale 0 to 100, 0 no effect, 100 complete control
[18] = postemergence, 62 g ai/ha, scale 0 to 100, 0 no effect, 100 complete control
[19] = Preemergence, 62 g ai/ha, scale 0 to 100 (0 no effect, 100 complete control)

Compound: Cc1nn(C)c(=O)c(-c2cccc3ccc(Br)cc23)c1O [Compound 126]
- Russian Thistle plant response rating [1, 13]: 30
- Plant response rating, Russian Thistle [1, 14]: 80
- Plant response rating, Russian Thistle [1, 15]: 85
- Plant response rating (scale of 0 to 100), Russian Thistle ([1]; Preemergence, 31 g ai/ha): 0
- Plant response rating (scale of 0 to 100), Russian Thistle ([1]; Preemergence, 62 g ai/ha): 0
- Plant response rating, Russian Thistle [1, 16]: 5
- Plant response rating, Russian Thistle [1, 17]: 15
- Plant response rating, Russian Thistle [1, 18]: 40
- Barley, Spring plant response rating [2, 13]: 0
- Plant response rating, Barley, Spring [2, 14]: 10
- Plant response rating, Barley, Spring [2, 15]: 10
- Plant response rating (scale of 0 to 100), Barley, Spring ([2]; Preemergence, 31 g ai/ha): 0
- Plant response rating, Barley, Spring [2, 19]: 0
- Plant response rating, Barley, Spring [2, 16]: 0
- Plant response rating, Barley, Spring [2, 17]: 0
- Plant response rating, Barley, Spring [2, 18]: 0
- Barley, Winter plant response rating [3, 13]: 0
- Plant response rating, Barley, Winter [3, 14]: 0
- Plant response rating, Barley, Winter [3, 15]: 0
- Plant response rating (scale of 0 to 100), Barley, Winter ([3]; Preemergence, 31 g ai/ha): 0
- Plant response rating, Barley, Winter [3, 19]: 0
- Plant response rating, Barley, Winter [3, 16]: 0
- Plant response rating, Barley, Winter [3, 17]: 5
- Plant response rating, Barley, Winter [3, 18]: 5
- Blackgrass plant response rating [4, 13]: 15
- Plant response rating, Blackgrass [4, 14]: 30
- Plant response rating, Blackgrass [4, 15]: 45
- Plant response rating (scale of 0 to 100), Blackgrass ([4]; Preemergence, 31 g ai/ha): 25
- Plant response rating, Blackgrass [4, 19]: 45
- Plant response rating, Blackgrass [4, 16]: 55
- Plant response rating, Blackgrass [4, 17]: 65
- Plant response rating, Blackgrass [4, 18]: 20
- Bluegrass plant response rating [5, 13]: 0
- Plant response rating, Bluegrass [5, 14]: 15
- Plant response rating, Bluegrass [5, 15]: 15
- Plant response rating (scale of 0 to 100), Bluegrass ([5]; Preemergence, 31 g ai/ha): 5
- Plant response rating, Bluegrass [5, 19]: 5
- Plant response rating, Bluegrass [5, 16]: 30
- Plant response rating, Bluegrass [5, 17]: 40
- Plant response rating, Bluegrass [5, 18]: 10
- Field Poppy plant response rating [6, 13]: 25
- Plant response rating, Field Poppy [6, 14]: 75
- Plant response rating, Field Poppy [6, 15]: 85
- Plant response rating (scale of 0 to 100), Field Poppy ([6]; Preemergence, 31 g ai/ha): 30
- Plant response rating (scale of 0 to 100), Field Poppy ([6]; Preemergence, 62 g ai/ha): 45
- Plant response rating, Field Poppy [6, 16]: 90
- Plant response rating, Field Poppy [6, 17]: 95
- Plant response rating, Field Poppy [6, 18]: 55
- Kochia plant response rating (kochia (Kochia scoparia); [13]): 75
- Plant response rating, Kochia (kochia (Kochia scoparia); [14]): 95
- Plant response rating, Kochia (kochia (Kochia scoparia); [15]): 100
- Plant response rating (scale of 0 to 100), Kochia (kochia (Kochia scoparia); Preemergence, 31 g ai/ha): 10
- Plant response rating (scale of 0 to 100), Kochia (kochia (Kochia scoparia); Preemergence, 62 g ai/ha): 20
- Plant response rating, Kochia (kochia (Kochia scoparia); [16]): 75
- Plant response rating, Kochia (kochia (Kochia scoparia); [17]): 95
- Plant response rating, Kochia (kochia (Kochia scoparia); [18]): 80
- Mustard, Wild plant response rating [7, 13]: 80
- Plant response rating, Mustard, Wild [7, 14]: 90
- Plant response rating, Mustard, Wild [7, 15]: 100
- Plant response rating (scale of 0 to 100), Mustard, Wild ([7]; Preemergence, 31 g ai/ha): 60
- Plant response rating (scale of 0 to 100), Mustard, Wild ([7]; Preemergence, 62 g ai/ha): 70
- Plant response rating, Mustard, Wild [7, 16]: 70
- Plant response rating, Mustard, Wild [7, 17]: 98
- Plant response rating, Mustard, Wild [7, 18]: 80
- Oat, Wild plant response rating [8, 13]: 60
- Plant response rating, Oat, Wild [8, 14]: 80
- Plant response rating, Oat, Wild [8, 15]: 90
- Plant response rating (scale of 0 to 100), Oat, Wild ([8]; Preemergence, 31 g ai/ha): 65
- Plant response rating (scale of 0 to 100), Oat, Wild ([8]; Preemergence, 62 g ai/ha): 70
- Plant response rating, Oat, Wild [8, 16]: 80
- Plant response rating, Oat, Wild [8, 17]: 90
- Plant response rating, Oat, Wild [8, 18]: 70
- Pigweed plant response rating [9, 13]: 98
- Plant response rating, Pigweed [9, 14]: 98
- Plant response rating, Pigweed [9, 15]: 98
- Plant response rating (scale of 0 to 100), Pigweed ([9]; Preemergence, 31 g ai/ha): 98
- Plant response rating (scale of 0 to 100), Pigweed ([9]; Preemergence, 62 g ai/ha): 100
- Plant response rating, Pigweed [9, 16]: 100
- Plant response rating, Pigweed [9, 17]: 100
- Plant response rating, Pigweed [9, 18]: 100
- Radish, Wild plant response rating [10, 13]: 40
- Plant response rating, Radish, Wild [10, 14]: 75
- Plant response rating, Radish, Wild [10, 15]: 95
- Plant response rating (scale of 0 to 100), Radish, Wild ([10]; Preemergence, 31 g ai/ha): 5
- Plant response rating (scale of 0 to 100), Radish, Wild ([10]; Preemergence, 62 g ai/ha): 15
- Plant response rating, Radish, Wild [10, 16]: 75
- Plant response rating, Radish, Wild [10, 17]: 90
- Plant response rating, Radish, Wild [10, 18]: 70
- Speedwell plant response rating [11, 13]: 60
- Plant response rating, Speedwell [11, 14]: 100
- Plant response rating, Speedwell [11, 15]: 100
- Plant response rating (scale of 0 to 100), Speedwell ([11]; Preemergence, 31 g ai/ha): 70
- Plant response rating (scale of 0 to 100), Speedwell ([11]; Preemergence, 62 g ai/ha): 100
- Plant response rating, Speedwell [11, 16]: 100
- Plant response rating, Speedwell [11, 17]: 100
- Plant response rating, Speedwell [11, 18]: 65
- Wheat, Spring plant response rating [12, 13]: 0
- Plant response rating, Wheat, Spring [12, 14]: 0
- Plant response rating, Wheat, Spring [12, 15]: 5
- Plant response rating (scale of 0 to 100), Wheat, Spring ([12]; Preemergence, 31 g ai/ha): 0
- Plant response rating (scale of 0 to 100), Wheat, Spring ([12]; Preemergence, 62 g ai/ha): 0
- Plant response rating, Wheat, Spring [12, 16]: 0
- Plant response rating, Wheat, Spring [12, 17]: 0
- Plant response rating, Wheat, Spring [12, 18]: 0
